Data: patent publication US11780802B2, “Organic sulfonic acid salts of amino acid esters and process for their preparation” (priority 2017, dated 2023)

Experiment: Stability in alkaline solution (residual ester bonds by 1H-NMR after storage)
Type: physicochemical
Details: 7 d, 50 wt % in water
Protocol: To determine the stability under alkaline conditions, 50 wt % of the organic sulfonic acid salt of an amino acid ester is dissolved in water, pH is adjusted with sodium hydroxide to pH 8.5. The aqueous solution or emulsion is stored for 7 days at room temperature and 40° C. Before storage the integral of CH2-O—CO— (^1H-NMR in MeOD, ˜4.2 ppm) is measured. The stability of organic sulfonic acid salt of an amino acid ester is indicated by measuring the integral of CH2-O—CO— (^1H-NMR in MeOD) after storage.

SMILES: CCCCC(CC)COC(=O)CCCCCN.CCCCCCCCCCCCc1ccc(S(=O)(=O)O)cc1 [Example 11, 6-amino-hexane acid-2-ethylhexylester 4-dodecylbenzene sulfonic acid salt]
- Residual amount of ester bonds after storage, calculated from 1H-NMR in MeOD (pH 8.5, 40° C.): 100%
- Residual amount of ester bonds after storage, calculated from 1H-NMR in MeOD (pH 8.5, RT): 100%

SMILES: CCCCC(CC)COC(=O)CN.CS(=O)(=O)O (stereo not drawn) [compound 3]
- Residual amount of ester bonds after storage, calculated from 1H-NMR in MeOD (pH 8.5, 40° C.): 20%
- Residual amount of ester bonds after storage, calculated from 1H-NMR in MeOD (pH 8.5, RT): 37%

SMILES: CCCCC(CC)COC(=O)C(C)N.CS(=O)(=O)O (stereo not drawn) [compound 4]
- Residual amount of ester bonds after storage, calculated from 1H-NMR in MeOD (pH 8.5, 40° C.): 46%
- Residual amount of ester bonds after storage, calculated from 1H-NMR in MeOD (pH 8.5, RT): 72%
